Test results reported in patent publication US20140288077A1, “SUBSTITUTED 4-PHENOXYPHENOL ANALOGS AS MODULATORS OF PROLIFERATING CELL NUCLEAR ANTIGEN ACTIVITY” (ST. JUDE CHILDREN'S RESEARCH HOSPITAL, priority 2011, published 2014).
Like-named read-outs stand apart in the source and are kept apart here. No end group written: not given here.

Target: T1, human PCNA recombinant protein (Homo sapiens, UniProt P12004)
T1 construct: The full length human PCNA; made in house; host or cells: Escherichia coli BL21(DE3)
Assay: Fluorescent polarization assay: competition with 5-FAM-labeled PL peptide for PCNA
Type: binding
Text: To determine the binding of the disclosed compounds to the human PCNA recombinant protein, a fluorescence polarization assay was employed. The assay is based on competition between a fluorescent tracer and increasing amounts of competing compound, i.e. a disclosed compound, determined as fluorescence polarization intensity (mP). The fluorescent tracer was 5-carboxyfluorescein (5-FAM) labeled PL peptide (“FAM-PL”). […] PCNA was a recombinant protein purified using standard methods known to one skilled in the art using an expression construct obtained from Dr. Toshiki Tsurimoto, Kyusyu University, Japan.
The volumes of PCNA and FAM-PL were adjusted to ensure that the final concentration of PCNA was 200 nM and FAM-PL was 10 nM. Assays were carried out in 384 well plates in a total volume of about 20-30 μL. […] Fluorescence measurements were made immediately after dilution in the assay plate. […] FP values (P) were calculated in millipolarization units (mP),
where I∥ and I⊥ are the emission intensities recorded, respectively, in the parallel and perpendicular directions relative to the plane of excitation polarization, after background intensity correction. G-factor values (G) for the fluorescein spectral window were measured using 1 nM fluorescein.
Alternatively, the fluorescent polarization assay can be carried out as described in the following. […] Briefly, 20 μl of the assay solution was transferred into each well of a black 384-well plate using Wellmate (Matrix). […] The negative control in each plate was DMSO, whereas the positive control was unlabeled PL-peptide as a self-competitor. […] FP values were calculated in millipolarization units. All data processing was performed using in-house programs in the Pipeline Pilot (Accelrys, version 7.0.1). The quality of the primary screen was assessed by Z-prime and other screening quality metrics.

[1] = Table 2, inhibition of FAM-PL peptide binding to PCNA, read-out: IC50

T1 sequence (P12004 whole entry): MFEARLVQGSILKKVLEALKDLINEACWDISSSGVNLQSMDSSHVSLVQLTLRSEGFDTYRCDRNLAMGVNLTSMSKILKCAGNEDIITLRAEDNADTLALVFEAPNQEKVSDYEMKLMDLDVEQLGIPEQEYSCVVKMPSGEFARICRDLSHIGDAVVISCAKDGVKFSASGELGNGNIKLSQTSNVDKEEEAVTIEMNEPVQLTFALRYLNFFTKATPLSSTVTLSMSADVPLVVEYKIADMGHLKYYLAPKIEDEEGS

Row | Molecule | IC50 [1] [µM] | further results
1 | COCCCNC(=O)CCc1cc(I)c(Oc2ccc(O)cc2)c(I)c1 [MLAE-054-4, 3-(4-(4-Hydroxyphenoxy)-3,5-diiodophenyl)-N-(3-methoxypropyl)propanamide] | 5.2 | –
2 | CS(=O)(=O)NC(=O)CCc1cc(I)c(Oc2ccc(O)c(C(=O)NCc3ccccc3)c2)c(I)c1 [MLAF-013, N-Benzyl-5-(2,6-diiodo-4-(3-(methylsulfonamido)-3-oxopropyl)phenoxy)-2-hydroxybenzamide] | 1.4 | –
3 | O=C1NC[C@H](Cc2cc(I)c(Oc3ccc(O)cc3)c(I)c2)N1 [MLAG-060, (S)-4-(4-(4-hydroxyphenoxy)-3,5-diiodobenzyl)imidazolidin-2-one] | 5.7 | –
4 | COc1ccc(Oc2c(I)cc(CC(=O)NS(C)(=O)=O)cc2I)cc1 [MLAE-046, 2-(3,5-Diiodo-4-(4-methoxyphenoxy)phenyl)-N-(methylsulfonyl)acetamide] | > 50 | –
5 | Cc1noc(C)c1S(=O)(=O)N[C@H](CO)Cc1cc(I)c(Oc2ccc(O)cc2)c(I)c1 [MLAE-061, (S)—N-(1-Hydroxy-3-(4-(4-hydroxyphenoxy)-3,5-diiodophenyl)propan-2-yl)-3,5-dimethylisoxazole-4-sulfonamide] | 16 | –
6 | O=S(=O)(N[C@H](CO)Cc1cc(I)c(Oc2ccc(O)cc2)c(I)c1)c1ccccc1 [MLAE-058-2, (S)—N-(1-Hydroxy-3-(4-(4-hydroxyphenoxy)-3,5-diiodophenyl)propan-2-yl)benzenesulfonamide] | 6 | –
7 | O=C(Cc1cc(I)c(Oc2ccc(O)c(I)c2)c(I)c1)NCCc1ccccc1 [MLAE-029-3, 2-(4-(4-hydroxy-3-iodophenoxy)-3,5-diiodophenyl)-N-phenethylacetamide] | > 50 | –
8 | O=C1CN(C(=O)Cc2cc(I)c(Oc3ccc(O)cc3)c(I)c2)CCN1 [MLAE-048, 4-(2-(4-(4-Hydroxyphenoxy)-3,5-diiodophenyl)acetyl)piperazin-2-one] | 9.1 | –
9 | O=C(Cc1cc(I)c(Oc2ccc(O)cc2)c(I)c1)N1CCOCC1 [MLAE-047, 2-(4-(4-hydroxyphenoxy)-3,5-diiodophenyl)-1-morpholinoethanone] | 6.3 | –
10 | O=C(O)CCc1ccc(I)c(Oc2ccc(O)cc2)c1I [MLAF-050, 3-(3-(4-Hydroxyphenoxy)-2,4-diiodophenyl)propanoic acid] | 19 | –
11 | O=C(CCc1ccc(I)c(Oc2ccc(O)cc2)c1I)NCCO [MLAF-051] | 9.5 | –
12 | N[C@H](CNC(=O)NCc1ccccc1)Cc1cc(I)c(Oc2ccc(O)cc2)c(I)c1 [MLAF-085, (S)-1-(2-amino-3-(4-(4-hydroxyphenoxy)-3,5-diiodophenyl)propyl)-3-benzylurea] | 1 | –
13 | NC(=O)Cc1cc(I)c(Oc2ccc(O)c(I)c2)c(I)c1 [MLAG-088, 2-(4-(4-Hydroxy-3-Iodophenoxy)-3,5-diiodophenyl)acetamide] | 6.6 | –
14 | CNC(=O)CCc1cc(I)c(Oc2ccc(OC)cc2)c(I)c1 [MLAE-040, 3-(3,5-Diiodo-4-(4-methoxyphenoxy)phenyl)-N-methylpropanamide] | 17 | –
15 | Cc1cc(Oc2c(I)cc(C[C@H](N)CO)cc2I)ccc1O [MLAG-093, (S)-4-(4-(2-amino-3-hydroxypropyl)-2,6-diiodophenoxy)-2-methylphenol] | 1.8 | –
16 | O=S(=O)(N[C@H](CO)Cc1cc(I)c(Oc2ccc(O)cc2)c(I)c1)c1ccc(O)cc1 [MLAE-060, (S)-4-Hydroxy-N-(1-hydroxy-3-(4-(4-hydroxyphenoxy)-3,5-diiodophenyl)propan-2-yl)benzenesulfonamide] | 32 | –
17 | Oc1ccc(Oc2c(I)cc(C[C@H]3C[NH2+][Pt-2]([Cl])([Cl])[NH2+]3)cc2I)cc1 [dichloro((S)-4-(4-(2,3-diaminopropyl)-2,6-diiodophenoxy)phenol)platinum(II)] | – | IC50 (incubation time 5 min (FIGS. 15-18), read-out: IC50 in fluorescent polarization assay): ~0.27 µM
18 | COc1ccc(Oc2c(I)cc(CCC(=O)NS(C)(=O)=O)cc2I)cc1 [MLAE-036, 3-(3,5-diiodo-4-(4-methoxyphenoxy)phenyl)-N-(methylsulfonyl)propanamide] | > 50 | –
19 | O=C(Cc1cc(I)c(Oc2ccc(O)c(I)c2)c(I)c1)NCc1ccccc1 [MLAE-029-4, N-Benzyl-2-(4-(4-hydroxy-3-iodophenoxy)-3,5-diiodophenyl)acetamide] | > 50 | –
20 | COc1ccc(Oc2c(I)cc(CC(=O)N3CCNC(=O)C3)cc2I)cc1 [MLAE-045, 4-(2-(3,5-Diiodo-4-(4-methoxyphenoxy)phenyl)acetyl)piperazin-2-one] | 2.1 | –

Row | Molecule | IC50 [1] [µM] | further results
21 | SAVLQKKITDYFHPKK [PL peptide, reference compound] | – | IC50 (unlabeled PL-peptide against tagged PL-peptide, data not shown, read-out: IC50 in self-competition): ~0.1 µM
22 | CS(=O)(=O)NC(=O)CCc1cc(I)c(Oc2ccc(O)c(C(=O)Nc3ccccc3)c2)c(I)c1 [MLAF-012, 5-(2,6-diiodo-4-(3-(methylsulfonamido)-3-oxopropyl)phenoxy)-2-hydroxy-N-phenylbenzamide] | > 50 | –
23 | CCCCCCNC(=O)NC[C@@H](N)Cc1cc(I)c(Oc2ccc(O)cc2)c(I)c1 [MLAF-086, (S)-1-(2-amino-3-(4-(4-hydroxyphenoxy)-3,5-diiodophenyl)propyl)-3-hexylurea] | 1.3 | –
24 | COc1ccc(Oc2c(I)cc(CCC(=O)N3CCCCC3)cc2I)cc1 [MLAE-039, 3-(3,5-Diiodo-4-(4-methoxyphenoxy)phenyl)-1-(piperidin-1-yl)propan-1-one] | 9.5 | –
25 | COCCNC(=O)CCc1cc(I)c(Oc2ccc(O)cc2)c(I)c1 [MLAE-051-1, 3-(4-(4-Hydroxyphenoxy)-3,5-diiodophenyl)-N-(2-methoxyethyl)propanamide] | 4.9 | –
26 | COc1ccc(S(=O)(=O)N[C@H](CO)Cc2cc(I)c(Oc3ccc(O)cc3)c(I)c2)cc1 [MLAE-058-3, (S)—N-(1-Hydroxy-3-(4-(4-hydroxyphenoxy)-3,5-diiodophenyl)propan-2-yl)-4-methoxybenzenesulfonamide] | 9.7 | –
27 | CCS(=O)(=O)N1CCN(C(=O)CCc2cc(I)c(Oc3ccc(O)cc3)c(I)c2)CC1 [MLAE-051-3, 1-(4-(Ethylsulfonyl)piperazin-1-Yl)-3-(4-(4-hydroxyphenoxy)-3,5-diiodophenyl)propan-1-one] | 2.7 | –
28 | O=C1CN(C(=O)CCc2cc(I)c(Oc3ccc(O)cc3)c(I)c2)CCN1 [MLAE-034, 4-(3-(4-(4-hydroxyphenoxy)-3,5-diiodophenyl)propanoyl)piperazin-2-one] | > 50 | –
29 | CN(C)C(=O)Cc1cc(I)c(Oc2ccc(O)cc2)c(I)c1 [MLAG-066-2, 2-(4-(4-hydroxyphenoxy)-3,5-diiodophenyl)-N,N-dimethylacetamide] | 7.5 | –
30 | O=C(CCc1cc(I)c(Oc2ccc(O)c(C(=O)NCc3ccccc3)c2)c(I)c1)NCCO [MLAF-008, N-Benzyl-2-hydroxy-5-(4-(3-((2-hydroxyethyl)amino)-3-oxopropyl)-2,6-diiodophenoxy)benzamide] | 0.4 | –
31 | Cc1cc(CCC(=O)O)cc(C)c1Oc1ccc(O)cc1 [NF021111, 3-(4-(4-hydroxyphenoxy)-3,5-dimethylphenyl)propanoic acid] | > 50 | –
32 | O=C(CCc1cc(I)c(Oc2ccc(O)cc2)c(I)c1)N1CCCCC1 [MLAE-041, 3-(4-(4-hydroxyphenoxy)-3,5-diiodophenyl)-1-(piperidin-1-yl)propan-1-one] | 2.4 | –
33 | O=C(Cc1cc(I)c(Oc2ccc(O)c(I)c2)c(I)c1)NC1CCCCC1 [MLAE-029-2, N-Cyclohexyl-2-(4-(4-hydroxy-3-iodophenoxy)-3,5-diiodophenyl)acetamide] | > 50 | –
34 | N[C@H](CNC(=O)CO)Cc1cc(I)c(Oc2ccc(O)cc2)c(I)c1 [MLAF-083, (S)—N-(2-amino-3-(4-(4-hydroxyphenoxy)-3,5-diiodophenyl)propyl)-2-hydroxyacetamide] | 1.4 | –
35 | N[C@H](CO)Cc1cc(I)c(Oc2ccc(O)c(I)c2)c(I)c1 [MLAG-083, (S)-4-(4-(2-amino-3-hydroxypropyl)-2,6-diiodophenoxy)-2-iodophenol] | 0.6 | –
36 | CCCOCCNC(=O)CCc1cc(I)c(Oc2ccc(O)cc2)c(I)c1 [MLAE-054-3, 3-(4-(4-Hydroxyphenoxy)-3,5-diiodophenyl)-N-(2-propoxyethyl)propanamide] | 8.3 | –
37 | NCc1cc(I)c(Oc2ccc(O)cc2)c(I)c1 [MLAG-082, 4-(4-(aminomethyl)-2,6-diiodophenoxy)phenol] | 1.6 | –
38 | Oc1ccc(Oc2c(I)cc(C[C@H]3C[NH2+][Pt-2]([Cl])([Cl])[NH2+]3)cc2I)cc1 [SWUA_018, Dichloro((S)-4-(4-(2,3-diaminopropyl)-2,6-diiodophenoxy)phenol)platinum(II)] | 0.27 | –
39 | CS(=O)(=O)NC(=O)Cc1cc(I)c(Oc2ccc(O)cc2)c(I)c1 [MLAE-049, 2-(4-(4-Hydroxyphenoxy)-3,5-diiodophenyl)-N-(methylsulfonyl)acetamide] | 9.1 | –
40 | CCNC(=O)Cc1cc(I)c(Oc2ccc(O)cc2)c(I)c1 [MLAG-066-3, N-ethyl-2-(4-(4-hydroxyphenoxy)-3,5-diiodophenyl)acetamide] | 6.6 | –
